Assay results as given in ChEMBL document CHEMBL5390294, “Pseudoceranoids A-J, Sesquiterpene-Based Meroterpenoids with Cytotoxicity from the Sponge Pseudoceratina purpurea” (J Nat Prod, 2023).

How the values were obtained:
[1] = test system: MDA-MB-231; assay: Cytotoxicity against human MDA-MB-231 cells assessed as inhibition of cell growth by SRB assay; type: functional, cell-based
[2] = test system: K562; assay: Cytotoxicity against human K562 cells assessed as inhibition of cell growth by MTT assay; type: functional, cell-based
[3] = Cytotoxicity against human L02 cells assessed as inhibition of cell growth by SRB assay; type: toxicity, cell-based
[4] = test system: H69AR; assay: Cytotoxicity against human NCI-H69AR cells assessed as inhibition of cell growth by SRB assay; type: functional, cell-based
[5] = test system: ASPC1; assay: Cytotoxicity against human ASPC1 cells assessed as inhibition of cell growth by SRB assay; type: functional, cell-based

COC1=CC(=O)[C@H](C[C@@]2(C)CC[C@]3(C)C(C)=CCC[C@H]3[C@H]2C)[C@H]1O
IC50 [1]: > 30 µM
IC50 [2]: > 30 µM
IC50 [3]: > 30 µM
IC50 [4]: > 30 µM
IC50 [5]: > 30 µM

COC1=CC(=O)[C@@H](C[C@@]2(C)CC[C@]3(C)C(C)=CCC[C@H]3[C@H]2C)[C@H]1O
IC50 [1]: > 30 µM
IC50 [2]: > 30 µM
IC50 [3]: > 30 µM
IC50 [4]: > 30 µM
IC50 [5]: > 30 µM

COC1=CC(=O)C=C(C[C@]2(C)[C@H](C)CC[C@@H]3C(C)=CCC[C@@H]32)C1=O
IC50 [1]: > 30 µM
IC50 [2]: > 30 µM
IC50 [3]: > 30 µM
IC50 [4]: > 30 µM
IC50 [5]: > 30 µM

COc1cc(O)cc2c1O[C@]1(C)CC[C@H]3C(C)(C)CCC[C@]3(C)[C@H]1C2
IC50 [1]: > 30 µM
IC50 [2]: 14 µM
IC50 [3]: > 30 µM
IC50 [4]: > 30 µM
IC50 [5]: > 30 µM

C=C1CCC[C@H]2[C@@H]1CC[C@@H](C)[C@@]2(C)CC1=CC(=O)C=C(OC)C1=O
IC50 [1]: > 30 µM
IC50 [2]: > 30 µM
IC50 [3]: > 30 µM
IC50 [4]: > 30 µM
IC50 [5]: > 30 µM

COc1cccc2c1C(=O)c1c(O)c3c(c(O)c1C2=O)C[C@@](O)(C(=O)CO)C[C@@H]3O[C@H]1C[C@H](N)[C@H](O)[C@H](C)O1 [DOXORUBICIN]
IC50 [1]: < 1 µM
IC50 [2]: < 1 µM
IC50 [4]: < 1 µM
IC50 [5]: < 1 µM

COC1=CC(=O)C2=C(C[C@@H]3[C@@]4(C)CCCC(C)(C)[C@@H]4CC[C@@]23C)C1=O
IC50 [1]: > 30 µM
IC50 [2]: > 30 µM
IC50 [3]: > 30 µM
IC50 [4]: > 30 µM
IC50 [5]: > 30 µM

CCCCOC1=CC(=O)C(O)=C(C[C@@]2(C)CC[C@]3(C)C(C)=CCC[C@H]3[C@H]2C)C1=O
IC50 [1]: 9.82 µM
IC50 [2]: 3.01 µM
IC50 [3]: 20.3 µM
IC50 [4]: 7.74 µM
IC50 [5]: > 30 µM

COC1=CC(=O)C(O)=C(C[C@@]2(C)CC[C@]3(C)C(C=O)=CCC[C@H]3[C@H]2C)C1=O
IC50 [1]: > 30 µM
IC50 [2]: > 30 µM
IC50 [3]: 12.1 µM
IC50 [4]: 2.85 µM
IC50 [5]: > 30 µM

COC1=CC(=O)C(O)=C(C[C@@]2(C)CC[C@]3(C)[C@@H](C)C(=O)CC[C@H]3[C@H]2C)C1=O
IC50 [1]: > 30 µM
IC50 [2]: 16.1 µM
IC50 [3]: 7.6 µM
IC50 [4]: > 30 µM
IC50 [5]: > 30 µM

COC(=O)/C=C1/OC(=O)C(C[C@@]2(C)CC[C@]3(C)C(C)=CCC[C@H]3[C@H]2C)=C1O
IC50 [1]: > 30 µM
IC50 [2]: > 30 µM
IC50 [3]: > 30 µM
IC50 [4]: > 30 µM
IC50 [5]: > 30 µM
